# Measured values reported in patent publication US11534457B2, “Use of dextran sulfate” (priority 2017, dated 2022).
# Test system: severe traumatic brain injury (sTBI)
# Assay: sTBI in rats, brain gene expression arrays and pathway analysis (Example 9)
# Format: in vivo, Male Wistar rats
# Parameters: key to z score, canonical pathway Dendritic Cell Maturation / z score, canonical pathway Adrenomedullin Signaling pathway / z score, canonical pathway Endothelin-1 Signaling / effect on canonical pathway Adrenomedullin Signaling pathway / effect on canonical pathway Endothelin-1 Signaling / effect on canonical pathway Dendritic Cell Maturation / Ingenuity canonical pathway Adrenomedullin signaling pathway, z score / Ingenuity canonical pathway FLT3 Signaling in Hematopoietic Progenitor Cells, z score / Ingenuity canonical pathway Opioid Signaling Pathway, z score / Ingenuity canonical pathway VDR/RXR Activation, z score / Ingenuity canonical pathway Neuropathic Pain Signaling In Dorsal Horn Neurons, z score / Ingenuity canonical pathway STAT3 Pathway, z score / Ingenuity canonical pathway IL-1 Signaling, z score / Ingenuity canonical pathway IL-6 Signaling, z score / Ingenuity canonical pathway NF-κB Signaling, z score / Ingenuity canonical pathway Role of NFAT in Cardiac Hypertrophy, z score / Ingenuity canonical pathway PPARα/RXRα Activation, z score: *: ambiguous effect
# Details: for effect of TBI on molecular processes and diseases: given 30 minutes after injury; for TBI-induced alterations in neurodegeneration and scarring-related canonical pathways: given within 30 minutes of TBI
# Experimental: The experimental protocol used in this study was approved by the Ethical Committee of the Catholic University of Rome, according to international standards and guidelines for animal care. Male Wistar rats of 300-350 g body weight were fed with standard laboratory diet and water ad libitum in a controlled environment. As the anesthetic mixture, the animals received 35 mg/kg b.w. ketamine and 0.25 mg/kg body weight midazolam by i.p. injection. Severe traumatic brain injury (sTBI) was induced by dropping a 450 g weight from 2 m height on to the rat head that had been protected by a metal disk previously fixed on the skull, according to the “weight drop” impact acceleration model (Marmarou et al., A new model of diffuse brain injury in rats. Part I: Pathophysiology and biomechanics. J Neurosurg. 1994; 80: 291-300). […] At the end of each period of treatment, rats were anesthetized again and then immediately sacrificed.
# LMW-DS (Tikomed AB) was provided at a stock concentration of 20 mg/ml and was kept in a temperature-monitored refrigerator at 4° C. LMW-DS aliquots were diluted to the appropriate dosing concentration in sterile saline prior to delivery of a single subcutaneous injection.
# Three doses of LMW-DS were administered subcutaneously 30 minutes post-TBI. The animals were sacrificed at 2 days post-TBI. The animals were divided into the following subgroups:
# Three doses of LMW-DS were administered subcutaneously 30 minutes post-TBI. The animals were sacrificed at 7 days post-TBI. The animals were divided into the following subgroups:
# An in vivo craniectomy was performed on all animals during anesthesia. After carefully removing the rat's skull, the brain was exposed and removed with a surgical spatula and quickly dropped in RNALater and preserved at 4° C. for further processing.
# RNA extraction and array processing was carried out by SourceBioscience. The arrays used were the Agilent Rat expression arrays.
# Statistical analysis was carried out using the Metaboanalyst software package. Gene expression changes of 10% with a p<0.05 were regarded as significant.
# Pathway analysis of the differentially regulated genes was carried out using the Ingenuity pathway analysis package. The analysis was performed with special reference to pathways and molecular processes and diseases associated with neurodegenerative disease, including dementia, Alzheimer's disease, ALS, TBI and stroke, and with scarring and fibrosis, including glaucoma and normal pressure hydrocephalus (NPH) after subarachnoid haemorrhage.
# [1] = TBI + 15 mg/kg repeat dose LMW-DS, after 7 days, TBI: Inhibited
# [2] = TBI + 15 mg/kg repeated dose LMW-DS, 7 days after TBI
# [3] = TBI + 15 mg/kg repeated dose LMW-DS, 7 days after TBI, relative to control
substance,measurement,setting,value
low molecular weight dextran sulfate [LMW-DS],Diseases or functions annotation: Differentiation of bone cells,[1],Inhibited
same,Diseases or functions annotation: Differentiation of connective tissue cells,[1],Inhibited
same,Diseases or functions annotation: Digestive system cancer,[1],Inhibited
same,Diseases or functions annotation: Epithelial neoplasm,[1],Inhibited
same,Diseases or functions annotation: Formation of cellular protrusions,[1],Activated
same,Diseases or functions annotation: Formation of intercellular junctions,[1],Activated
same,Diseases or functions annotation: Learning,[1],Activated
same,Diseases or functions annotation: Microtubule dynamics,[1],Activated
same,Diseases or functions annotation: Migration of cells,[1],Activated
same,Diseases or functions annotation: Morphogenesis of neurons,[1],Activated
same,Diseases or functions annotation: Neurotransmission,[1],Activated
same,Diseases or functions annotation: Non-hematological solid tumor,[1],Inhibited
same,Diseases or functions annotation: Non-melanoma solid tumor,[1],Inhibited
same,Diseases or functions annotation: Nonhematologic malignant neoplasm,[1],Inhibited
same,Diseases or functions annotation: Organization of cytoplasm,[1],Activated
same,Diseases or functions annotation: Organization of cytoskeleton,[1],Activated
same,Diseases or functions annotation: Quantity of Ca^2+,[1],Activated
same,Diseases or functions annotation: Quantity of carbohydrate,[1],Inhibited
same,Diseases or functions annotation: Quantity of cells,[1],Activated
same,Diseases or functions annotation: Size of body,[1],Activated
same,Diseases or functions annotation: Transport of ion,[1],Activated
same,Diseases or functions annotation: Transport of metal,[1],Activated
same,Diseases or functions annotation: Transport of molecule,[1],Activated
same,Diseases or functions annotation: Tumorigenesis of tissue,[1],Inhibited
same,Ingenuity canonical pathway: 3-phosphoinositide Degradation,[2],Activated
same,Ingenuity canonical pathway: Acute Phase Response Signaling,[2],Inhibited
same,Ingenuity canonical pathway: Adrenomedullin signaling pathway,[2],Inhibited
same,Ingenuity canonical pathway: B Cell Receptor Signaling,[2],Inhibited
same,Ingenuity canonical pathway: Ephrin Receptor Signaling,[2],Activated
same,Ingenuity canonical pathway: Fc Epsilon RI Signaling,[2],Inhibited
same,Ingenuity canonical pathway: G Beta Gamma Signaling,[2],Activated
same,Ingenuity canonical pathway: NF-κB Signaling,[2],Activated
same,Ingenuity canonical pathway: Opioid Signaling Pathway,[2],Activated
same,Ingenuity canonical pathway: Role of NFAT in Cardiac Hypertrophy,[2],Activated
same,Ingenuity canonical pathway: Role of NFAT in Regulation of the Immune Response,[2],Activated
same,Ingenuity canonical pathway: Signaling by Rho Family GTPases,[2],Activated
same,Ingenuity canonical pathway: Superpathway of Inositol Phosphate Compounds,[2],Activated
same,Ingenuity canonical pathway: Synaptic Long Term Depression,[2],Activated
same,z score: Abdominal cancer,[2],−2.015
same,z score: Abdominal neoplasm,[2],−1.116
same,z score: Adenocarcinoma,[2],−0.944
same,z score: Branching of cells,[2],0.397
same,z score: Carcinoma,[2],−0.358
same,z score: Cell movement,[2],0.154
same,z score: Cell-cell contact,[2],1.504
same,z score: Concentration of hormone,[2],0.825
same,z score: Concentration of lipid,[2],−0.204
same,z score: Dendritic growth/branching,[2],−0.169
same,z score: Development of connective tissue cells,[2],−0.005
same,z score: Development of gap junctions,[2],0.849
same,z score: Development of neurons,[2],0.688
same,z score: Developmental process of synapse,[2],0.849
same,z score: Differentiation of bone cells,[2],−0.237
same,z score: Differentiation of connective tissue cells,[2],−0.011
same,z score: Digestive organ tumor,[2],−1.481
same,z score: Digestive system cancer,[2],−1.513
same,z score: Epithelial neoplasm,[2],−0.999
same,z score: Extracranial solid tumor,[2],0.529
same,z score: Formation of cellular protrusions,[2],1.183
same,z score: Formation of intercellular junctions,[2],0.391
same,z score: Gastrointestinal tumor,[2],−1.284
same,z score: Hematologic cancer,[2],−2.216
same,z score: Hematopoietic neoplasm,[2],−2.027
same,z score: Learning,[2],0.469
same,z score: Microtubule dynamics,[2],1.962
same,z score: Migration of cells,[2],0.271
same,z score: Morphogenesis of neurons,[2],0.205
same,z score: Neurotransmission,[2],1.214
same,z score: Non-hematologic malignant neoplasm,[2],−0.223
same,z score: Non-hematological solid tumor,[2],−0.913
same,z score: Non-melanoma solid tumor,[2],−1.478
same,z score: Obesity,[2],2.18
same,z score: Organization of cytoplasm,[2],1.922
same,z score: Organization of cytoskeleton,[2],1.922
same,z score: Quantity of carbohydrate,[2],−0.017
same,z score: Quantity of cells,[2],0.493
same,z score: Seizure disorder,[2],1.376
same,z score: Size of body,[2],0.67
same,z score: Skin lesion,[2],0.532
same,z score: Transport of ion,[2],1.109
same,z score: Transport of metal,[2],1
same,z score: Transport of molecule,[2],1.143
same,z score: Tumorigenesis of tissue,[2],−1.333
same,"Ingenuity canonical pathway 3-phosphoinositide Degradation, z score",[3],2
same,"Ingenuity canonical pathway Acute Phase Response Signaling, z score",[3],−0.447
same,"Ingenuity canonical pathway Adrenomedullin signaling pathway, z score",[3],−0.378
same,"Ingenuity canonical pathway B Cell Receptor Signaling, z score",[3],−0.447
same,"Ingenuity canonical pathway Ephrin Receptor Signaling, z score",[3],2.236
same,"Ingenuity canonical pathway FLT3 Signaling in Hematopoietic Progenitor Cells, z score",[3],*
same,"Ingenuity canonical pathway Fc Epsilon RI Signaling, z score",[3],−1
same,"Ingenuity canonical pathway G Beta Gamma Signaling, z score",[3],2.236
same,"Ingenuity canonical pathway IL-1 Signaling, z score",[3],*
same,"Ingenuity canonical pathway IL-6 Signaling, z score",[3],*
same,"Ingenuity canonical pathway NF-κB Signaling, z score",[3],0.447
same,"Ingenuity canonical pathway Neuropathic Pain Signaling In Dorsal Horn Neurons, z score",[3],*
same,"Ingenuity canonical pathway Opioid Signaling Pathway, z score",[3],0.816
same,"Ingenuity canonical pathway Role of NFAT in Cardiac Hypertrophy, z score",[3],0.447
same,"Ingenuity canonical pathway Role of NFAT in Regulation of the Immune Response, z score",[3],2.236
same,"Ingenuity canonical pathway Signaling by Rho Family GTPases, z score",[3],1
same,"Ingenuity canonical pathway Superpathway of Inositol Phosphate Compounds, z score",[3],2
same,"Ingenuity canonical pathway Synaptic Long Term Depression, z score",[3],1.342
same,effect of TBI on molecular processes and diseases,2 days,mostly abolished
same,effect of TBI on molecular processes and diseases,7 days,mostly abolished
same,TBI-induced alterations in neurodegeneration and scarring-related canonical pathways,2 days,counteracted
same,TBI-induced alterations in neurodegeneration and scarring-related canonical pathways,7 days,counteracted
